Measurements published in BindingDB's records for patent US20260028328 (Chiesi Farmaceutici, 2026).

Experiments:
[1] = molecular target: T1, Discoidin domain-containing receptor 2 (Homo sapiens, UniProt Q16832); assay: Binding Assays
T1 sequence (Q16832 whole entry): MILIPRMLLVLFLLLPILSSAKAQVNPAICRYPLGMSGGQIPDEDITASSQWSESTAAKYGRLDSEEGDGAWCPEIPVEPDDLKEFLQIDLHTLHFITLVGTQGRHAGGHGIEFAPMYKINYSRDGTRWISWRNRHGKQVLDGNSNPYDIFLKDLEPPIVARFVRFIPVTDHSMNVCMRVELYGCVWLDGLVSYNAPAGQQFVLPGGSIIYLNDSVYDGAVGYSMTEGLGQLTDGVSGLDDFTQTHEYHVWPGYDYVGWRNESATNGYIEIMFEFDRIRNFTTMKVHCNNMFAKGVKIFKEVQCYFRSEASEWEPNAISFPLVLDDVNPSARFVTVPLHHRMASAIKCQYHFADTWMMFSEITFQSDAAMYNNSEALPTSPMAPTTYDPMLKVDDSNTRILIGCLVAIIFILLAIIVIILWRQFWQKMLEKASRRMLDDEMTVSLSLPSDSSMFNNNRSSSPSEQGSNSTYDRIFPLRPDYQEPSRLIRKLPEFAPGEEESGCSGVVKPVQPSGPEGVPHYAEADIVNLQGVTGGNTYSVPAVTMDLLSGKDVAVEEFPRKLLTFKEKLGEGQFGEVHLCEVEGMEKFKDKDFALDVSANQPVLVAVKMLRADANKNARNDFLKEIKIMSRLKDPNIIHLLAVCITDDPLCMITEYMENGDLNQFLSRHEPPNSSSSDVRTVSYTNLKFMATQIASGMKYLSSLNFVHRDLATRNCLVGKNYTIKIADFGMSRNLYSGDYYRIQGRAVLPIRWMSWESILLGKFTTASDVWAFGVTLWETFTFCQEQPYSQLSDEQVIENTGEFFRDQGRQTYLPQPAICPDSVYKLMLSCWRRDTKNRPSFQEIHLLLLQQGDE
Experimental: (§1) DDR1 and DDR2 binding assays were performed using Life Technologies LanthaScreen™ Europium Kinase Binding assay. The compounds were incubated with 5 nM DDR1 (Carna Biosciences) or 5 nM DDR2 (Life Technologies) for 1 h at rt in white 384-well OptiPlate (PerkinElmer), containing 20 nM or 10 nM Kinase Tracer 178 respectively and 2 nM Europium labelled anti-GST antibody (Life Technologies) in assay buffer (50 mM HEPES pH 7.5, 10 mM MgCI2, 1 mM EGTA and 0.01% BRIJ35). The ratio of fluorescence emission 665 nm/615 nm after excitation at 340 nm was obtained using the Tecan Spark 20M plate reader. IC50 values were determined in GraphPad Prism 7.0 software, using 4 parameter model: log(inhibitor) vs. response. IC50 values were converted in Ki using the Cheng-Prusoff equation (Ki=IC50/(1+[Tracer]/Kd).

[2] = molecular target: Epithelial discoidin domain-containing receptor 1 (Homo sapiens, UniProt Q08345); assay: Binding Assays
Sequence of Epithelial discoidin domain-containing receptor 1 (Q08345 whole entry, the tested form may be a part): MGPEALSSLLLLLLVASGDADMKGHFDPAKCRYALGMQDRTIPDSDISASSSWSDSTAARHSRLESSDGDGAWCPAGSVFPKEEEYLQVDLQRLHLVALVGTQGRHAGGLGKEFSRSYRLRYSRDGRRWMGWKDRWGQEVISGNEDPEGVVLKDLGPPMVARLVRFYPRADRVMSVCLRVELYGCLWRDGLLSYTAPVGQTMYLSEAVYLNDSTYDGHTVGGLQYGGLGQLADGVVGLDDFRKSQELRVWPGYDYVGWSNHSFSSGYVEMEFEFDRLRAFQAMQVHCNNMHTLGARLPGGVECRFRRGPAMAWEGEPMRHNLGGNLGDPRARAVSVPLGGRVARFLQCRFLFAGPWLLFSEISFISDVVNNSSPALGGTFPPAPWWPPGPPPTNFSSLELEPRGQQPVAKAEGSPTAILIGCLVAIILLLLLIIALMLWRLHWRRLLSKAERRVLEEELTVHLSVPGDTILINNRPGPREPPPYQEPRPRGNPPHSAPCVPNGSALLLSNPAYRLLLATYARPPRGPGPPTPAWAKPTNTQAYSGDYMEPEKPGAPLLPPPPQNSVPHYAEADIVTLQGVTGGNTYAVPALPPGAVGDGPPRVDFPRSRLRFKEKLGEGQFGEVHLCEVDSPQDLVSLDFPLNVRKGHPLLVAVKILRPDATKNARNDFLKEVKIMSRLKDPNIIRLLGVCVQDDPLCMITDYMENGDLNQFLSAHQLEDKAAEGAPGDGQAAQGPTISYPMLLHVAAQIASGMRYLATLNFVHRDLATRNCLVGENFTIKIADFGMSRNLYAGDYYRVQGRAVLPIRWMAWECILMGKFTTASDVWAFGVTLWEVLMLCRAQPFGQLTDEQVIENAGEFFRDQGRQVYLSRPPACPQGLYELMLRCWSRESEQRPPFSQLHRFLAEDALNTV
Experimental: as §1

Cc1ccc(C(=O)Nc2cncc(C(F)(F)F)c2)cc1SC1CN(c2cncnc2)C1 [US20260028328, Example 177] was tested, and the Ki [1] was 25 to 100 nM and the Ki [2] was 5 to 25 nM.
Cc1ccc(C(=O)Nc2cncc(C(F)(F)F)c2)cc1OC1CN(c2cncc(C(N)=O)c2)C1 [US20260028328, Example 139] was tested, and the Ki [2] was < 5 nM.
